Source: PubChem BioAssay (NCI)
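Growth conditions: 96-well plates. Treatment: test compound, 48 hours, 5 concentrations. Analysis: linear interpolation between bracketing concentrations; unreached endpoints set to highest concentration. Here, GI50 denotes the concentration required for 50% inhibition of growth. TGI denotes the concentration required for complete inhibition of growth.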

Legend:
Experiment in all cases: DTP human tumour cell line panel, 48 h
[1] = system: 786-0 renal
[2] = system: A498 renal
[3] = system: A549 NSCLC
[4] = system: ACHN renal
[5] = system: BT-549 breast
[6] = system: CAKI-1 renal
[7] = system: CCRF-CEM leukemia
[8] = system: COLO 205 colon
[9] = system: DU-145 prostate
[10] = system: EKVX NSCLC
[11] = system: HCC-2998 colon
[12] = system: HCT-116 colon
[13] = system: HCT-15 colon
[14] = system: HL-60(TB) leukemia
[15] = system: HOP-62 NSCLC
[16] = system: HOP-92 NSCLC
[17] = system: HS 578T breast
[18] = system: HT29 colon
[19] = system: IGROV1 ovarian
[20] = system: K-562 leukemia
[21] = system: KM12 colon
[22] = system: LOX IMVI melanoma
[23] = system: M14 melanoma
[24] = system: MALME-3M melanoma
[25] = system: MCF7 breast
[26] = system: MDA-MB-231 breast
[27] = system: MDA-MB-435
[28] = system: MOLT-4 leukemia
[29] = system: NCI-H226 lung
[30] = system: NCI-H23 lung
[31] = system: NCI-H460 lung
[32] = system: NCI-H522 lung
[33] = system: NCI/ADR-RES ovarian
[34] = system: OVCAR-3 ovarian
[35] = system: OVCAR-4 ovarian
[36] = system: OVCAR-5 ovarian
[37] = system: OVCAR-8 ovarian
[38] = system: PC-3 prostate
[39] = system: RPMI-8226 leukemia
[40] = system: RXF 393 renal
[41] = system: SF-268 CNS
[42] = system: SF-295 CNS
[43] = system: SF-539 CNS
[44] = system: SK-MEL-2 melanoma
[45] = system: SK-MEL-28 melanoma
[46] = system: SK-MEL-5 melanoma
[47] = system: SK-OV-3 ovarian
[48] = system: SN12C renal
[49] = system: SNB-19 CNS
[50] = system: SNB-75 CNS
[51] = system: SR leukemia
[52] = system: SW-620 colon
[53] = system: T-47D breast
[54] = system: TK-10 renal
[55] = system: U251 CNS
[56] = system: UACC-257 melanoma
[57] = system: UACC-62 melanoma
[58] = system: UO-31 renal

NC1CCC(Nc2nc(NCc3ccc(-c4cccs4)nc3)c3ncn(C4CCCC4)c3n2)CC1 (stereo unspecified)
GI50 [1]: 0.122 µM | TGI [1]: 1.12 µM | GI50 [2]: 0.0725 µM | TGI [2]: 0.225 µM | GI50 [3]: 0.0237 µM | TGI [3]: 2.04 µM | GI50 [4]: 0.276 µM | TGI [4]: 1.01 µM | GI50 [5]: 0.131 µM | TGI [5]: 0.626 µM | GI50 [6]: 1.62 µM | TGI [6]: 9.92 µM | GI50 [7]: 0.0329 µM | TGI [7]: 0.554 µM | GI50 [8]: 0.0169 µM | TGI [8]: 0.035 µM | GI50 [9]: 0.0933 µM | TGI [9]: 4.42 µM | GI50 [10]: 0.0426 µM | TGI [10]: 0.762 µM | GI50 [11]: 0.0307 µM | TGI [11]: 0.49 µM | GI50 [12]: 0.0332 µM | TGI [12]: 1.15 µM | GI50 [13]: 0.342 µM | TGI [13]: 5.36 µM | GI50 [14]: 0.0206 µM | TGI [14]: 0.0644 µM | GI50 [15]: 0.0276 µM | TGI [15]: 0.0987 µM | GI50 [16]: 0.03 µM | TGI [16]: 0.134 µM | GI50 [17]: 0.0269 µM | TGI [17]: 2.28 µM | GI50 [18]: < 0.0143 µM | TGI [18]: 0.315 µM | GI50 [19]: 0.0363 µM | TGI [19]: 1.93 µM | GI50 [20]: 0.0397 µM | TGI [20]: 0.777 µM | GI50 [21]: 0.0285 µM | TGI [21]: 0.743 µM | GI50 [22]: 0.296 µM | TGI [22]: 3.48 µM | GI50 [23]: 0.0258 µM | TGI [23]: 0.337 µM | GI50 [24]: 0.122 µM | TGI [24]: 0.523 µM | GI50 [25]: 0.0301 µM | TGI [25]: 1.14 µM | GI50 [26]: 0.024 µM | TGI [26]: 1.59 µM | GI50 [27]: 0.0282 µM | TGI [27]: 1.08 µM | GI50 [28]: 0.025 µM | TGI [28]: 0.502 µM | GI50 [29]: 0.131 µM | TGI [29]: 1.31 µM | GI50 [30]: 0.0383 µM | TGI [30]: 0.319 µM | GI50 [31]: 0.0913 µM | TGI [31]: 2.19 µM | GI50 [32]: < 0.016 µM | TGI [32]: 0.049 µM | GI50 [33]: 0.244 µM | TGI [33]: 4.29 µM | GI50 [34]: 0.0492 µM | TGI [34]: 0.731 µM | GI50 [35]: 0.0326 µM | TGI [35]: 1.06 µM | GI50 [36]: 0.0302 µM | TGI [36]: 2.58 µM | GI50 [37]: 0.0504 µM | TGI [37]: 12.9 µM | GI50 [38]: 0.0337 µM | TGI [38]: 1.04 µM | GI50 [39]: 0.0227 µM | TGI [39]: 0.137 µM | GI50 [40]: 0.0148 µM | TGI [40]: 0.0378 µM | GI50 [41]: 0.0188 µM | TGI [41]: 1.08 µM | GI50 [42]: 0.0819 µM | TGI [42]: 0.699 µM | GI50 [43]: 0.157 µM | TGI [43]: 0.395 µM | GI50 [44]: 0.0908 µM | TGI [44]: 0.288 µM | GI50 [45]: 0.0296 µM | TGI [45]: 0.117 µM | GI50 [46]: 0.28 µM | TGI [46]: 1.28 µM | GI50 [47]: 0.126 µM | TGI [47]: 4.28 µM | GI50 [48]: 0.0341 µM | TGI [48]: 1.81 µM | GI50 [49]: 0.0302 µM | TGI [49]: 3.75 µM | GI50 [50]: 0.016 µM | TGI [50]: 0.0588 µM | GI50 [51]: 0.0328 µM | TGI [51]: 0.582 µM | GI50 [52]: < 0.0152 µM | TGI [52]: 2.03 µM | GI50 [53]: 0.033 µM | TGI [53]: 0.699 µM | GI50 [54]: 0.166 µM | TGI [54]: 2.69 µM | GI50 [55]: 0.0327 µM | TGI [55]: 0.434 µM | GI50 [56]: 0.0568 µM | TGI [56]: 0.295 µM | GI50 [57]: 0.087 µM | TGI [57]: 0.365 µM | GI50 [58]: 0.203 µM | TGI [58]: 0.661 µM
